One compound from patent US20240261291A1, “Ophthalmic Compositions and/or Methods for Presbyopia, Mydriasis and/or Ocular Discomfort Management” (Brien Holden Vision Institute Limited, priority 2021, published 2024) can be followed below.

Test [1] concerns pupillary diameter of the eye. Kind of test: Pupillary diameter over 2 hours after a single eye drop of caffeine 2 wt. % in water, 5 individuals (Grand Seiko autorefractor). Conditions: for average decrease in pupillary diameter compared to baseline: 5 individuals; for maximal decrease in pupillary diameter: largest among individuals. The format is in vivo, human. The procedure: FIG. 1 is a schematic of the pupil diameter of eyes prescribed with caffeine 2% over time.
FIG. 1 illustrates the baseline pupillary diameter and the pupillary diameter over 2 hours in a group of 5 individuals (3 males and 2 females, age ranging from 31 to 45 yrs) prescribed with an ophthalmic composition comprising caffeine. A topical ophthalmic composition comprising caffeine 2 wt. % in water was instilled (as a single eye drop in the range of from 0.025 mL to 0.075 ml, such as an average single drop size of about 0.05 mL) in one eye of each of the individuals. Pupillary diameter at baseline and at subsequent time points was captured using a Grand Seiko autorefractor for 11 secs and data summarized. The room illumination was standardized at 150 to 200 lux. As observed from FIG. 1, there was a decrease in pupillary diameter post instillation. On average, compared to baseline, the decrease in pupillary diameter at 30 mins and 1 hr post instillation was 0.3 mm and was approximately 0.2 mm at 2 hrs. There was some variation between the various individuals, however the maximal […] in pupillary diameter at 30 mins was 0.4 mm, was approximately 0.8 mm at 1 hr and was approximately 0.6 mm at 2 hrs. Such an ophthalmic composition, as disclosed herein, can be used according to the methods provided herein to reduce the pupillary diameter of a treated eye of a subject and be effective in treating or managing symptoms related to presbyopia and/or mydriasis and/or eyes with disorders requiring light modulation such as one or more of vision disturbances.

Test [2] has as its system pupillary diameter of the eye. Kind of test: Reversal of Tropicamide 1% mydriasis by caffeine 2.0 w/v % in saline, left eye only, person (Grand Seiko autorefractor). The format is in vivo, human. Conditions: for Pupillary diameter Left eye: given 50 mins after Tropicamide 1%. The procedure:
FIG. 4 illustrates that difference in pupil diameter in the right and left eyes of an individual, wherein Tropicamide 1% was instilled in both eyes and approximately 50 minutes later, an ophthalmic composition comprising Caffeine at 2 w/v. % was instilled in the left eye only.
The following Table 3 illustrates the pupil diameter of a person. An aqueous solution of 1% Tropicamide was instilled in both eyes. Pupillary diameter was measured over a 15 second interval with a Grand Seiko autorefractor with the individual fixating at an object positioned 1 meter away. Pupillary diameter was dynamically sampled at multiple time points over the 15 second interval. Pupillary diameters for both eyes were measured prior to instillation (baseline), soon after instillation of 1% Tropicamide and then 20 minutes and 50 minutes post instillation. […] At this time point, a single drop (0.05 mL) of 2.0 w/v % Caffeine in Saline (0.9 wt. % NaCl) (composition 1) was instilled in the left eye only. The individual was monitored 30 minutes, 60 minutes, 2 hrs, 4 hrs and 6.5 hrs from instillation of Caffeine.
FIG. 4 illustrates the difference in pupillary diameter between the right and left eyes 4 hrs from the instillation of Tropicamide 1% in both eyes and […] from instillation of Caffeine 2 w/v % in the left eye.

On to `Cn1c(=O)c2c(ncn2C)n(C)c1=O` [Caffeine, caffeine (1,7 methylxanthine)], for which the “average decrease in pupillary diameter compared to baseline” value is recorded as 0.3 mm in test [1] (30 mins post instillation, 150 to 200 lux); 0.3 mm in test [1] (1 hr post instillation); “approximately 0.2 mm” in test [1] (2 hrs post instillation). For the same compound, the figures for the “maximal decrease in pupillary diameter” value in test [1] (30 mins), in test [1] (1 hr) and in test [1] (2 hrs) were 0.4 mm, “approximately 0.8 mm” and “approximately 0.6 mm”, respectively. In addition, the “Difference in pupillary diameter (Right − Left)” value came to 0.5 mm in test [2] (30 mins post instillation of Caffeine 2 w/v % in left eye, both eyes Tropicamide 1%); 0.7 mm in test [2] (60 mins post instillation of Caffeine 2 w/v % in left eye, both eyes Tropicamide 1%); 0.8 mm in test [2] (2 hrs post instillation of Caffeine 2 w/v % in left eye, both eyes Tropicamide 1%). Moreover, the “difference between the pupils” value in test [2] (at 1 and 2 hours following instillation of Caffeine in the left eye, both eyes Tropicamide 1%) was “approximately 0.8 mm”. For the same compound, the “left eye pupil diameter” value in test [2] (left eye (Tropicamide 1% then Caffeine 2 w/v %), 6.5 hrs from the baseline visit, returned to normal) is on record as 3.8 mm. The “Pupillary diameter Left eye” value amounted to 6.8 mm in test [2] (left eye, 30 mins post instillation of Caffeine 2 w/v %); 6.5 mm in test [2] (left eye, 60 mins post instillation of Caffeine 2 w/v %); 6.3 mm in test [2] (left eye, 2 hrs post instillation of Caffeine 2 w/v %). Also, the “left eye pupillary diameter” value in test [2] (left eye, 3 hrs from instillation of Caffeine 2 w/v %, 4 hrs from Tropicamide 1% (FIG. 4)) is 5.9 mm.
